Test [1] concerns mice. In words: Water maze test, scopolamine-caused spatial cognition impairment. The format is in vivo, mouse. The following applies: scopolamine alone (0.9 mg/kg i.p.). How it is done: The Moths water maze set up contained a round water pool (45 cm deep with a diameter of 90 cm) filled with milk-mixed water (22±1° C.) to a depth of 30 cm. It was placed in a dark, sound-shielded room in which various visual cues were established. A white platform (6 cm in diameter, 29 cm in height) was inside the pool, with the top thereof 1 cm below the water surface in the center of one quadrant of the maze
On day 1, the mice were trained to swim for 60 sec. Subsequently, the training was conducted four times a day for four consecutive days, with the platform inside the pool. When the mouse reached the platform, it was allowed to sit on the platform only for 10 sec. If the failed in reaching the platform within 60 sec, it was guided to reach the platform and stay for 10 sec thereon. Afterwards, the mouse was returned back to the home cage and allowed to dry its body under an IR lamp. The time interval between trials was 30 sec.
The time to reach the hidden platform was recorded in each trial using a video camera-based Ethovision System (Nodulus, Wageningen, the Netherlands).
For each training trial, the mouse was placed into the pool at one quadrant at positions which were different day by day. One day after the final training trial, the mouse was evaluated. In this regard, after the platform was removed, the mouse was allowed to swim for 60 sec in search for the platform, and the time to swim in the quadrant where the platform was located was recorded. Gintonin (25, 50, or 100 mg/kg, p.o.) in physiological saline was administered 1 hr before test, every day. Tacrine (10 mg/kg, p.o.) was used as a positive control. Memory impairment was induced by scopolamine (0.9 mg/kg i.p.) 30 min after gintonin administration. For a negative control, only physiological saline was administered.
An examination was made of simple spatial reasoning. To this end, while the mice were allowed to swim in the absence of the rescue platform in the pool, the time period during which the mice swam in the quadrant where the rescue platform had been located was recorded.

Test [2] has as its system mice. As to the kind of experiment: Passive avoidance test, scopolamine-caused long-term memory impairment. The format is in vivo, mouse. The settings on record: scopolamine alone (0.9 mg/kg, i.p.); test session 24 h after learning. How it is done:
ICR male mice (25-28 g), purchased from Oriental Bio (Seoul, Korea), were bred according to the guideline of the Institutional Animal Care and Use Committee of Konkuk University, and subjected to passive avoidance test to examine memory maintenance impairment and the protection of gintonin against memory impairment according to the method of Yang et al. (Yang et al., Biol Pharm Bull 32, 1710-1715, 2009).
A passive avoidance test was performed in a training chamber which was divided into two compartments (20×20×20 cm in size, each) separated by an automatically moving guillotine door (5×5 cm): one compartment was lighted while the other remained dark where metal rods installed in a lattice pattern on the bottom so as to deliver an electrical foot shock (Gemini Avoidance System, San Diego, USA).
For an acquisition trial, a mouse was first placed in the lighted compartment, facing away from the dark compartment and allowed to explore for 10 sec. After 10 sec, the guillotine door was opened and the mouse was allowed to explore freely. When the mouse entered the dark compartment with all four paws according to its habit, the guillotine door was closed, and a footshock (0.5 mA, 3 sec duration) was delivered. The latency time to enter the dark compartment was recorded (from the time the door was lifted). 120 min before experimentation, gintonin (25, 50, 100 mg/kg, p.o) was administered while tacrine (10 mg/kg, p.o) was used as a positive control. Memory impairment was induced by injecting scopolamine (0.9 mg/kg, i.p.) 30 min after gintonin or tacrine administration (Araujo et al., Prog Neuropsycopharmcol Biol Psychiatry 29, 411-422, 2005). For a negative control, a physiological saline was used.
24 Hours after the learning session, an experiment was performed without injecting gintonin. The mouse was positioned again in the lighted compartment. After 10 sec of acclimation, the latency time to enter the dark compartment was recorded (from the time the door was lifted).

A further test has as its target T1, LPA3 receptor (Homo sapiens, UniProt Q9UBY5).
T1 construct: host or cells: B103 rat neuroblastoma cells
T1 sequence (Q9UBY5 1-353): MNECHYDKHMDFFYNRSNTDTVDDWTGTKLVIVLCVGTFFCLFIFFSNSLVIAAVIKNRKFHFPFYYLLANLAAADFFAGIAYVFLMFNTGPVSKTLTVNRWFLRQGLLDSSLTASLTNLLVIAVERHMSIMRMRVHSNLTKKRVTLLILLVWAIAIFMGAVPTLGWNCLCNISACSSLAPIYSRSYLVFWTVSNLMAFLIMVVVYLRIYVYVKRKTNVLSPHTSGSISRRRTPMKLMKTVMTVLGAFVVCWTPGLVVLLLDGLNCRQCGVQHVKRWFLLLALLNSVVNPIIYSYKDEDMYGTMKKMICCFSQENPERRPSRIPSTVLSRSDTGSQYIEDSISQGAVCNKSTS
As to the kind of experiment: Intracellular free Ca2+ (Fura-2AM) in LPA3-expressing B103 cells. The format is cell-based. The following applies: LPA3 receptor-expressing B103 cells; read-out: EC50, intracellular calcium increase. An excerpt:
(§1) LPA family receptors are endogenous to cells of most organs. B103 rat neuroblastoma cells, known as LPA receptor-null cells (Valentine et al., Biochim Biophys Acta 1780. 597-605) were transiently transfected with a plasmid (vector) carrying one of genes coding for LPA1(edg-2), LPA2(edg-4), LPA3(edg-7), LPA4, LPA5 and LPA6 receptors or a plasmid carrying none of them (empty vector). Two or three days after transfection, the cells are suspended, and made permeable. Then, the permeable cells are treated with Fura-2AM, a fluorescent dye binding to calcium, and then with gintonin, followed by spectrofluorephotometry to examine whether gintonin induces an increase in intracellular free Ca^2+ level.
(1) preparing large quantities of plasmids carrying respective LPA family receptor genes and an empty plasmid carrying none of them through amplification and purification (maxi-preparation); (2) verifying the expression of LPA receptors wherein B103 cells are transfected with haematoglutin (HA)-tagged LPA receptors, and then subjected to Western blotting analysis using an anti-HA primary antibody and a horseradish peroxidase (HRP)-conjugated secondary antibody to develop a color; (3) verifying the expression of LPA receptors wherein B1-3 cells are transfected with haematoglutin (HA)-tagged LPA receptors, and then subjected to confocal laser microscopy using an anti-HA antibody and a fluorescence dye Cy3-conjugated secondary antibody; (4) transfecting the empty plasmid and each of the plasmids carrying LPA family receptor genes into B103 cells; (5) treating the transfected B103 cells with trypsin (0.05% trypsin with EDTA, w/v) 2-3 days post-transfection, to give a cell suspension; (6) culturing the suspended B103 cells with Fura-2AM (2.5 μM); and (7) treating the suspended B103 cells with gintonin and quantifying a change in intracellular free Ca^2+ level in a cuvette by spectrofluorephotometry using Fura-2AM.
Human LPA (lysophosphatidic acid) receptor subtypes, orphan GPCRs (G protein coupled receptors) and plasmids carrying GPCRs were purchased from Missouri S&T resource Center (www.cDNA.org).
The transient transfection of LPA receptor subtypes was carried out with the aid of Lipofectamine 2000 of Invitrogen. A plasmid (10.8 μg) carrying each LPA receptor (LPA1, LPA2, LPA3, LPA4, LPA5, and LPA6) was transfected into B103 cells grown in 10-cm dishes, and incubated for 2 days prior for use in experiments.
In this Example, gintonin, or ginsenoside Rb1 or Rg1 was examined for its ability to induce a transient increase of [Ca^2+]i in Fura-2AM-loaded B103 cells which were transfected with LPA receptors and in Fura-2AM-loaded B103 cells which were not transfected with LPA receptors. To this end, B103 cells (2˜4×10^6/ml) pre-treated with Fura-2AM were suspended in a 1.5 mM Ca^2+-containing buffer or Ca^2+-free buffer, and incubated 37° C. for 30 min, followed by analyzing intracellular calcium levels in the B103 cells in the presence of gintonin or ginsenosides.
Briefly, B103 cells (1˜2×10^6/ml) were mixed with 2.5 μM Fura 2-AM in a Ca^2+ buffer (pH 7.4) containing NaCl 120 mM, KCl 5 mM, MgCl2 1 mM, CaCl2 1.5 mM, glucose 10 mM, and HEPES 25 mM, and a Ca^2+ free buffer (pH 7.4) containing NaCl 120 mM, KCl 5 mM, MgCl2 1 mM, EGTA 0.2 mM, glucose 10 mM, and HEPES 25 mM at 37° C. for 30 min in water bath with shaking according to the Jørgensen method, and washed three times with Ca^2+ buffer or Ca^2+ free buffer to remove excess Fura-2AM.
[Ca^2+]i was estimated in Fura 2AM-loaded cells in suspension using an RF-5300PC intracellular ion measurement system (Shimadzu Corporation, Japan).
Briefly, Fura 2-AM loaded cells were diluted with an experimental medium to a final density of 2˜4×10^6 cells/mL, and transferred to polystyrene cuvettes (Elkay Ultra-VU). The cells were stirred using Teflon-coated magnets, and the cuvette housing was thermostatically controlled at 37° C. The excitation wavelengths were alternated between 340 and 380 nm under computer control. […]
(In general: Calcium assays in cells follow changes in intracellular calcium, usually with a dye or a luminescent sensor.)

Test [3] deals with LPA receptor-null B103 cells (empty vector). As to the kind of experiment: Intracellular free Ca2+ (Fura-2AM) in B103 cells transfected with empty vector. In kind it is cell-based, rat. The settings on record: B103 cells not expressing LPA3 receptor.
Description: as §1, with “level. […]” for “level.”
Briefly, Fura 2-AM loaded cells were diluted with an experimental medium to a final density of 2˜4×10^6 cells/mL, and transferred to polystyrene cuvettes (Elkay Ultra-VU). […] Emission was detected at 510 nm Excitation and emission slit widths were 5 nm Background calibration was performed as described by Jørgensen et al. […]

For another test, the system named is BKCaK+ channels. As to the kind of experiment: BKCa K+ channel activity in Xenopus oocytes, two-electrode voltage clamp. In kind it is cell-based. The settings on record: 2-APB 100 μM, BAPTA-AM, PMA 1 μM. Here is the method:
Xenopus laevis frogs were obtained from Xenopus I (Ann Arbor, Mich.). Their care and handling were in accordance with the highest standards of institutional guidelines. To isolate oocytes, the frogs were operated on under anesthesia with an aerated solution of 3-aminobenzoic acid ethyl ester. Oocytes were separated by treatment with collagenase and agitation for two hours in a Ca^2+-free medium containing 82.5 mM NaCl, 2 mM KCl, 1 mM MgCl2, 5 mM HEPES, 2.5 mM sodium pyruvate, 100 units/ml penicillin and 100 μg/ml streptomycin.
Stage V-VI oocytes were collected and stored in ND96 (96 mM NaCl, 2 mM KCl, 1 mM MgCl2, 1.8 mM CaCl2, and 5 mM HEPES, pH 7.4) supplemented with 50 μg/ml gentamicin. This oocyte containing solution was maintained at 18° C. with continuous gentle shaking while the ND96 medium was changed with a fresh one every day.
Two-electrode voltage-clamp recordings were obtained from individual oocytes placed in a small Plexiglas net chamber (5 ml). Electrophysiological experiments were performed using microelectrodes filled with 3 M KCl (resistance of 0.2-0.7 MΩ) and an Oocyte Clamp amplifier (OC-725C; Warner Instrument, CT, USA) to record BKc K^+ channel activity at room temperature (Choi et al., Mol Cells 31, 133-140, 2011). For physiological recordings of BKCaK^+ channel activity, oocytes were first perfused with a Cl^−- and Ca^2+-free solution (mM: 96 NaOH, 2 KOH, 8 Mg-gluconate, 5 HEPES, 5 EGTA, pH 7.4 with methanesulfonic acid) supplemented with 500 μM anthracene-9-carboxylic acid, a Cl^− channel blocker, to block endogenous Cl-channels (Lu et al., J. Biol. Chem. 265, 16190-16194.1990). Then, the oocytes were clamped at −80 mV holding potential, followed by step depolarization from the holding potential to +40 mV at regular intervals of […] for 400 ms to record outward currents.
Background: In two-electrode clamp one electrode senses voltage and the other passes current.

For another test, the system named is LPA receptor. As to the kind of experiment: Gintonin-induced intracellular Ca2+ increase in LPA receptor-expressing B103 cells (subtype not named). The following applies: pretreated. In kind it is cell-based, human. An excerpt: Optionally, the method may further comprise (8) pre-treating the suspended B103 cells with LPA receptor antagonists and LPA receptor-mediated signaling-relevant drugs (e.g., pertussis toxin, PLC inhibitors, IP3 receptor antagonists) to examine whether the cells decrease or increase in intracellular free Ca^2+, prior to treatment with gintonin; (9) performing site-directed mutagenesis to identify an amino acid of LPA receptors with which gintonin interact to activate the LPA; and (10) examining whether gintonin activates orphan GPCRs including GPR35 and GPR87, and free fatty acid GPCRs including GPR40, GPR41, GPR43 and GPR120, all known for activation by LPA.
In this Example, gintonin, or ginsenoside Rb1 or Rg1 was examined for its ability to induce a transient increase of [Ca^2+]i in Fura-2AM-loaded B103 cells which were transfected with LPA receptors and in Fura-2AM-loaded B103 cells which were not transfected with LPA receptors. […]
Briefly, Fura 2-AM loaded cells were diluted with an experimental medium to a final density of 2˜4×10^6 cells/mL, and transferred to polystyrene cuvettes (Elkay Ultra-VU). […] Emission was detected at 510 nm Excitation and emission slit widths were 5 nm Background calibration was performed as described by Jørgensen et al.

On to `CN1[C@@H]2C[C@@H](OC(=O)[C@H](CO)c3ccccc3)C[C@H]1[C@@H]1O[C@@H]12` [scopolamine, reference compound], for which, in the test on mice [1], the “swimming time in the quadrant where the platform had been located” value was determined as 13.47 ± 1.86 s. Moreover, in the test with mice [2], the latency time was found to be 23.07 ± 1.95 s.

For “lysophosphatidic acid [LPA, reference compound]”, the EC50 (as a rule, the concentration giving half of the maximal effect) on LPA3 receptor was 58.9 ± 5.54 nM. Also, in test [3], the “increase of intracellular calcium level” value is “did not induce the increase of intracellular calcium level”.

On to `CCCCCCCCCCCCCC(=O)O[C@@H]1[C@@H](C)[C@@]2(O)[C@@H](C=C(CO)C[C@]3(O)C(=O)C(C)=C[C@@H]23)[C@@H]2C(C)(C)[C@]12OC(C)=O` [PMA], for which the “effect on gintonin-induced BKCaK+ channel activation” value in the test on BKCaK+ channels (Kil6425 10 μM, U73122, U73343 1 μM) is reported as “caused the gintonin-induced activation of BKCaK^+ channels to disappear”. In the test on BKCaK+ channels (U73122 1 μM), the “effect on ginsenoside Rg3-induced BKCaK+ channel activity” value is on record as “had no influences on the activity of ginsenoside Rg3”. The “effect of pretreatment on gintonin-induced intracellular calcium increase” value in the test with LPA receptor is on record as “blocked”.

For the origin of these results see patent publication US20140234868A1, “USE FOR GLYCOLIPOPROTEIN GINTONIN, ISOLATED AND IDENTIFIED FROM GINSENG, AS A NATURAL MEDICAL-PLANT DERIVED LIGAND” (KONKUK UNIVERSITY INDUSTRIAL COOPERATION CORP., priority 2011, published 2014).
